Measured values from US20140294724A1, “COMPOSITIONS AND METHODS FOR TREATMENT OF PROTEINOPATHIES” (Intellect Neurosciences, Inc., priority 2011, published 2014).
Values joined by “and” are separate entries in the source; they are usually repeats but may differ in a detail not shown here. Identical values can stand only once.

Legend:
[1] = Oxygen Radical Absorbance Capacity assay (ORAC antioxidant test); assay type: biochemical; conditions: for Calculated Trolox® equivalents: ratio of slope of sample to slope of Trolox® (Eq. 3)
Text: Sodium Fluorescein was purchased from Invitrogen. 2,2′-Azobis(2-amidinopropane) dihydrochloride (AAPH), 6-hydroxy-2,5,7,8-tetramethylchroman-2-carboxylic acid (Trolox®), gallic acid, Epigallocatechin gallate (EGCG), epigallocatechin (EGC), and quercetin dihydrate were purchased from Sigma-Aldrich (St. Louis, Mo.). Black-sided, special optics clear bottom plates (part #3615) were obtained from Corning.
The ORAC assay depends on the free radical damage to a fluorescent probe, such as fluorescein, to result in a downward change of fluorescent intensity. The assumption is that the degree of change is indicative of the amount of radical damage. […] This inhibition is observed as a preservation of the fluorescent signal. Reactions containing antioxidants and or blanks are run in parallel using equivalent amounts of a molecule capable of generating super reactive oxygen species (ROS) and fluorescent probe. Because the reaction is driven to completion, one can quantitate the protection by calculating the area under the curve (AUC) from the experimental sample. After subtracting the AUC from the blank, the resultant difference would be the protection conferred by the antioxidant compound. […] The ORAC assay is unique in that because the assay is driven to completion the AUC calculation combines both the inhibition time as well inhibition percentage of free radical damage by the antioxidant into a single quantity.
Reactive oxygen species generators were added to parallel reactions containing equal amounts of a fluorescent probe. Reactions contained either a buffer blank or antioxidant samples and standards. The antioxidant capacity of a sample is the net difference between the area under the curve (AUC) of the sample and that of the blank. The exterior wells were not used for experimental determinations. 200 μL of MilliQ dH2O was added to the outer wells surrounding the test wells in order to minimize evaporation. 150 μL sodium fluorescein was added to experimental wells. […] The plate was allowed to equilibrate by incubating for 30 min in the Victor2^V Microplate Reader (Perkin Elmer, Waltham, Mass.) at 37° C. Reactions were initiated by the addition 25 μL of AAPH solution (free radical initiator) for a final reaction volume of 200 μl. The fluorescence was monitored kinetically in Victor2V with temperature control reader for at least 80 min with data taken every minute. Fast orbital shaking (0.5 mm) for 10 sec was performed prior to each reading. The temperature was set to 37° C. at all time and the reagents were treated as light sensitive.
AUC=(R1/R1)+(R2/R1)+(R3/R1)+ . . . +(Rn/R1) (Eq. 1)
Where R1 is the fluorescence reading at the initiation of the reaction and Rn is the last measurement.
Net AUC=AUC(sample)−AUC(blank) (Eq. 2)
The resultant standard curve was then interpolated to determine of antioxidant capacity of the samples and reported as Trolox® equivalence. To determine Trolox® equivalents of each sample range the ratio of the slope (m) of the linear regression analysis of the sample to the slope of the linear regression of Trolox® was used:
TE(range of concentrations)=m(sample)/m(Trolox®) (Eq. 3)

β-Amyloid 1-40 peptide = target: T1, β-Amyloid 1-40 peptide (Homo sapiens, UniProt P05067); assay: β-Amyloid aggregation, Thioflavin T fluorescence assay; assay type: biochemical; conditions: 24 hours; for reduction of fibrillogenesis: with ApoE4 added (about 1/80 of test compound), equimolar with Aβ; for potency in reducing fibrillogenesis compared with melatonin: with ApoE4 added
T1 construct: 60 μM β-Amyloid 1-40
Method: In a NUNC PP 96-well plate 100 μL of MilliQ dH2O was added to the outer wells surrounding the test wells in order to minimize evaporation. Samples in a final volume of 100 μl/well were added to the 96-well plate as follows:
Aggregation was measured at 0 and 24 hours incubation time.
5 μL was obtained from each test sample after incubation and added to 2 mL of a glycine/NaOH buffer (50 mM, pH 9.2) containing 3 μM thioflavin T. Fluorescence intensities were measured at an excitation wavelength of 450 nm and an emission wavelength of 485 nm in a Envision fluorescence spectrophotometer. A time scan of fluorescence intensity was performed, and three measurements were taken after the decay reached a plateau at 200, 220, and 240 s and averaged after subtracting the background fluorescence of 3 μM thioflavin T in the blank buffers. […] All measurements were taken in triplicate. Siliconized polypropylene microcentrifuge tubes (USA Scientific) were used for these experiments. Solutions of recombinant apolipoproteins were immediately lyophilized and, prior to being used, resuspended in 0.1 M tris-phosphate-HCl buffer (pH 7.4). […] Solutions of Aβ were prepared by dissolving 2.2 mg of the peptide in 1 mL of 50 mM buffer at pH 9.6. Aliquots (50 uL) of this solution were lyophilized and stored at −80° C. until they were needed for the experiments. Working stock solutions of the peptide (concentration of 500 uM) were prepared in HPLC-grade water immediately prior to the experiments. The absence of aggregates and amyloid fibrils in these solutions was verified by spectrofluorometry.

patients with AD = conditions: 250 mg dose, cited from earlier work
[2] = system: moderate-stage AD patients; conditions: 2000 IU per day; cited from earlier work

T1 sequence (P05067 672-711): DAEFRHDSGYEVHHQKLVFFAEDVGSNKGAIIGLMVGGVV

For `COc1ccc2[nH]cc(CCNC(=O)CCCCCN3C(=O)CC(SC[C@H](N)C(=O)O)C3=O)c2c1` (stereo partly drawn) [Example 1, (2R)-2-amino-3-((1-(6-((2-(5-methoxy-1H-indol-3-yl)ethyl)amino)-6-oxohexyl)-2,5-dioxopyrrolidin-3-yl)thio)propanoic acid], the AUC ([1]; Concentration 0.390625) was 14.99, the “Net AUC” value ([1]; Concentration 0.390625) was 8.56 and the AUC ([1]; Concentration 0.78125) was 20.01. The “Net AUC” value ([1]; Concentration 0.78125) was 13.58, the AUC ([1]; Concentration 1.5625) was 29.51 and the “Net AUC” value ([1]; Concentration 1.5625) was 23.08. For the same compound, the AUC ([1]; Concentration 3.125) was 46.55, the “Net AUC” value ([1]; Concentration 3.125) was 40.12 and the AUC ([1]; Concentration 6.25) was 74.68. For the same compound, the “Net AUC” value ([1]; Concentration 6.25) was 68.25, the AUC ([1]; Concentration 12.5) was 93.56 and the “Net AUC” value ([1]; Concentration 12.5) was 87.13. The AUC ([1]; Concentration 25) was 93.03, the “Net AUC” value ([1]; Concentration 25) was 86.60 and the AUC ([1]; Concentration 50) was 88.39. The “Net AUC” value ([1]; Concentration 50) was 81.96, the AUC ([1]; Concentration 100) was 82.12 and the “Net AUC” value ([1]; Concentration 100) was 75.69. For the same compound, the “Calculated Trolox® equivalents” value [1] was 2.02 Trolox® equivalents, the reduction of fibrillogenesis (β-Amyloid 1-40 peptide) was 75% and the “potency in reducing fibrillogenesis compared with melatonin” value (β-Amyloid 1-40 peptide) was “about 2 fold”.
With `COc1ccc2[nH]cc(CCNC(=O)CCOCCOCCOCCOCCNC(=O)CCN3C(=O)CC(SC[C@H](N)C(=O)O)C3=O)c2c1` (stereo partly drawn) [Example 2, (2R)-2-amino-3-((1-(1-(5-methoxy-1H-indol-3-yl)-4,20-dioxo-7,10,13,16-tetraoxa-3,19-diazadocosan-22-yl)-2,5-dioxopyrrolidin-3-yl)thio)propanoic acid] the AUC ([1]; Concentration 0.390625) was 13.97, the “Net AUC” value ([1]; Concentration 0.390625) was 7.75 and the AUC ([1]; Concentration 0.78125) was 20.49. For the same compound, the “Net AUC” value ([1]; Concentration 0.78125) was 14.27, the AUC ([1]; Concentration 1.5625) was 28.06 and the “Net AUC” value ([1]; Concentration 1.5625) was 21.84. For the same compound, the AUC ([1]; Concentration 3.125) was 45.62, the “Net AUC” value ([1]; Concentration 3.125) was 39.39 and the AUC ([1]; Concentration 6.25) was 71.79. For the same compound, the “Net AUC” value ([1]; Concentration 6.25) was 65.56, the AUC ([1]; Concentration 12.5) was 94.48 and the “Net AUC” value ([1]; Concentration 12.5) was 88.26. The AUC ([1]; Concentration 25) was 97.13, the “Net AUC” value ([1]; Concentration 25) was 90.91 and the AUC ([1]; Concentration 50) was 97.12. The “Net AUC” value ([1]; Concentration 50) was 90.90, the AUC ([1]; Concentration 100) was 96.55 and the “Net AUC” value ([1]; Concentration 100) was 90.33. For the same compound, the “Calculated Trolox® equivalents” value [1] was 1.97 Trolox® equivalents, the reduction of fibrillogenesis (β-Amyloid 1-40 peptide) was 75% and the “potency in reducing fibrillogenesis compared with melatonin” value (β-Amyloid 1-40 peptide) was “about 2 fold”.
For `COc1ccc2[nH]cc(CCNC(C)=O)c2c1` [Melatonin, N-[2-(5-Methoxyindol-3-yl)ethyl]acetamide], the AUC ([1]; Concentration 0.390625) was 14.74, the “Net AUC” value ([1]; Concentration 0.390625) was 8.09 and the AUC ([1]; Concentration 0.78125) was 20.89. For the same compound, the “Net AUC” value ([1]; Concentration 0.78125) was 14.24, the AUC ([1]; Concentration 1.5625) was 28.74 and the “Net AUC” value ([1]; Concentration 1.5625) was 22.09. For the same compound, the AUC ([1]; Concentration 3.125) was 42.59, the “Net AUC” value ([1]; Concentration 3.125) was 35.94 and the AUC ([1]; Concentration 6.25) was 66.10. For the same compound, the “Net AUC” value ([1]; Concentration 6.25) was 59.45, the AUC ([1]; Concentration 12.5) was 88.65 and the “Net AUC” value ([1]; Concentration 12.5) was 82.00. The AUC ([1]; Concentration 25) was 93.12, the “Net AUC” value ([1]; Concentration 25) was 86.47 and the AUC ([1]; Concentration 50) was 94.75. For the same compound, the “Net AUC” value ([1]; Concentration 50) was 88.10, the AUC ([1]; Concentration 100) was 91.48 and the “Net AUC” value ([1]; Concentration 100) was 84.82.
In the case of `CN(C)Cc1ccc2c(Cl)cc(Cl)c(O)c2n1` [PBT2], the tolerability (patients with AD; patients with AD) is given as “well-tolerated”, the “cerebrospinal fluid (CSF) levels of amyloid-beta42” value (patients with AD; within 12 weeks of treatment) is given as “significantly lowered” and the “executive function on a Neuro-psychological Test Battery (NTB)” value (patients with AD; within 12 weeks of treatment) is given as “significantly improved”.
In the case of `Cc1c(C)c2c(c(C)c1O)CCC(C)(C(=O)O)O2` (stereo not shown) [Trolox, 6-hydroxy-2,5,7,8-tetramethylchroman-2-carboxylic acid], the “protection of fluorescein against oxidation” value ([1]; 6.25 μM, lowest concentration tested, versus buffer only control) is reported as “only slight protection”, the “duration of virtually full protection of fluorescein against oxidation” value ([1]; 100 μM, highest concentration tested) is reported as “approximately 20 minutes” and the AUC ([1]; Concentration 0.390625) is reported as 11.95 and 13.53 and 11.49. The “Net AUC” value ([1]; Concentration 0.390625) was 5.30 and 7.10 and 5.27, the AUC ([1]; Concentration 0.78125) was 14.90 and 15.01 and 14.62 and the “Net AUC” value ([1]; Concentration 0.78125) was 8.24 and 8.58 and 8.39. The AUC ([1]; Concentration 1.5625) was 20.00 and 19.69 and 19.52, the “Net AUC” value ([1]; Concentration 1.5625) was 13.34 and 13.26 and 13.30 and the AUC ([1]; Concentration 3.125) was 28.96 and 29.49 and 28.51. The “Net AUC” value ([1]; Concentration 3.125) was 22.31 and 23.06 and 22.29, the AUC ([1]; Concentration 6.25) was 44.91 and 44.55 and 43.41 and the “Net AUC” value ([1]; Concentration 6.25) was 38.25 and 38.12 and 37.18. The AUC ([1]; Concentration 12.5) was 77.61 and 74.88 and 73.04, the “Net AUC” value ([1]; Concentration 12.5) was 70.96 and 68.45 and 66.81 and the AUC ([1]; Concentration 25) was 96.34 and 100.28 and 98.61. The “Net AUC” value ([1]; Concentration 25) was 89.68 and 93.85 and 92.39, the AUC ([1]; Concentration 50) was 98.05 and 97.48 and 100.67 and the “Net AUC” value ([1]; Concentration 50) was 91.40 and 91.05 and 94.45. For the same compound, the AUC ([1]; Concentration 100) was 95.82 and 99.05 and 97.58 and the “Net AUC” value ([1]; Concentration 100) was 89.17 and 92.62 and 91.35.
For `Cc1c(C)c2c(c(C)c1O)CCC(C)(CCCC(C)CCCC(C)CCCC(C)C)O2` (stereo not drawn) [Vitamin E, α-tocopherol], the “delay in reaching the end points of institutionalization, loss of major activities of daily living, or death” value [2] is given as “small but significant delay” and the “loss of cognitive performance” value [2] is given as “did not delay”.
